Experiments:
[1] = system: A549 cells; test: Time-lapse imaging (live cell imaging) after siRNA for WDHD1; type: cell-based, human; details: control cells divided about every 10 hours
Procedure: Cells were grown on a 35 mm glass-bottom dish in phenol red-free Dulbecco's modified Eagle's medium containing 10% fetal bovine serum (FBS). Cells were transfected with siRNA and subjected to time-lapse imaging using a computer-assisted fluorescence microscope (Olympus, LCV100) equipped with an objective lens (Olympus, UAPO 40×/340 N.A.=0.90), a halogen lamp, a red LED (620 nm), a CCD camera (Olympus, DP30), differential interference contrast (DIC) optical components, and interference filters. For DIC imaging, the red LED was used with a filter cube containing an analyzer. Image acquisition and analysis were performed by using MetaMorph 6.13 software (Universal Imaging, Media, Pa.).

[2] = system: A549 cells; test: Flow cytometry (cell cycle) after si-WDHD1; type: cell-based, human
Procedure: Cells were collected in PBS, and fixed in 70% cold ethanol for 30 minutes. After treatment with 100 μg/mL RNase (Sigma/Aldrich, St. Louis, Mo.), the cells were stained with 50 μg/mL propidium iodide (Sigma/Aldrich, St.) in PBS. Flow cytometry was done on a Becton Dickinson FACScan and analyzed by ModFit software (Verity Software House, Inc., Topsham, Me.). The cells selected from at least 20,000 ungated cells were analyzed for DNA content.

[3] = system: mitotic cells; test: Immunocytochemical analysis of mitotic cells after siRNA for WDHD1; type: cell-based; details: control si-LUC: normal metaphase figures
Procedure: Cultured cells were washed twice with PBS(−), fixed in 4% formaldehyde solution for 30 min at room temperature and then rendered permeable with PBS(−) containing 0.1% Triton X-100 for 3 min at room temperature. Nonspecific binding was blocked by Casblock (ZYMED, San Francisco, Calif.) for 10 min at room temperature for CDCA5 and WDHD1, by Casblock (ZYMED, San Francisco, Calif.) for 7 min at room temperature for EPHA7, 3% bovine serum albumin in PBS(−) for 7 min at room temperature for STK31. Cells were then incubated for 60 min (for CDCA5, EPHA7 or STK31) or 10 min (for WDHD1) at room temperature with primary antibodies diluted in PBS containing 3% BSA. After being washed with PBS(−), the cells were stained by a donkey anti-rabbit secondary antibody conjugated to Alexa488 (Molecular Probes) (for CDCA5 and EPHA7) or FITC-conjugated secondary antibody (Santa Cruz Biotechnology, Santa Cruz, Calif.) (for STK31 and WDHD1) at 1:1,000 dilutions for 60 min at room temperature. After another wash with PBS(−), each specimen was mounted with Vectashield (Vector Laboratories, Inc., Burlingame, Calif.) containing 4′,6-diamidino-2-phenylindole and visualized with Spectral Confocal Scanning Systems (TSC SP2 AOBS; Leica Microsystems, Wetzlar, Germany).

[4] = system: WDHD1; test: RNA interference assay: WDHD1 knockdown by RT-PCR; type: cell-based, human; details: A549, LC319 and TE9 cells
Procedure: Total RNA was extracted from cultured cells using Trizol reagent (Life Technologies, Inc. Gaithersburg, Md.) according to the manufacturer's protocol. Extracted RNAs were treated with DNase I (Nippon Gene, Tokyo, Japan) and reversely-transcribed using oligo (dT) primer and SuperScript II. The primer sets for amplification were as follows:
(§1) Small interfering RNA (siRNA) duplexes (Dharmacon, Inc., Lafayette, Colo.) (600 pM) were transfected into lung-cancer cell lines LC319 and A549 for CDCA5; NCI-H520 and SBC-5 for EPHA7; LC319 for WDHD1, and esophageal cancer cell line TE9 for WDHD1 using 30 μl of Lipofectamine 2000 (Invitrogen, Carlsbad, Calif.) following the manufacturer's protocol. The transfected cells were cultured for 7 days, and the number of colonies was counted by Giemsa staining, and viability of cells was evaluated by 3-(4,5-dimethylthiazol-2-yl)-2,5-diphenyltetrazolium bromide (MTT) assay (cell counting kit-8 solution; Dojindo Laboratories, Kumanoto, Japan), at 7 days after transfection. To confirm suppression of gene expression, semiquantitative RT-PCR was carried out with synthesized primers described above.

[5] = system: A549 cells; test: RNA interference assay (oligo based): colony formation and MTT assays; type: cell-based, human
[6] = system: TE9 cells; test: as above; type: cell-based, human
Procedure: as §1

[7] = system: LC319 cells; test: as above; type: cell-based, human
Procedure: as §1

[8] = synchronized A549 cells after cell cycle release

5′-GGUAAUACGUGGACUCCUA UU-3′ (GGUAAUACGUGGACUCCUAUU; listed as RNA, chemistry not given here) [si-WDHD1-#2]
cell division and cell death (time-lapse microscopy) [1]: divided slowly and died shortly after cell division
number of cells in S phase ([2]; A549 cells, 24˜72 hours after transfection): continuously decreased
proportion of cells in G0/G1 phase ([2]; A549 cells, 48˜72 hours after transfection): increased
number of cells in G0/G1 phase [2, 8]: increased
progression of S phase [2, 8]: delayed
chromosome congression in mitotic cells [3]: chromosomes failed to congress at the spindle midzone
WDHD1 knockdown effect (RT-PCR) [4]: knockdown effect was confirmed
number of A549 cells (MTT and colony-formation assays), siRNA against WDHD1 [5]: drastic reduction in the number of cells
number of TE9 cells (MTT and colony-formation assays), siRNA against WDHD1 [6]: drastic reduction in the number of cells
number of LC319 cells (MTT and colony-formation assays), siRNA against WDHD1 [7]: drastic reduction in the number of cells

Reference: patent publication US20110160280A1, “CANCER-RELATED GENES, CDCA5, EPHA7, STK31 AND WDHD1” (Oncotherapy Science, Inc., priority 2007, published 2011)
